According to ChEMBL document CHEMBL5550086, “Drug discovery targeting nicotinamide phosphoribosyltransferase (NAMPT): Updated progress and perspectives” (Bioorg Med Chem, 2024):
Each block holds one compound with its values, some of them ahead of it.

Key:
[1] = biological target: T1, Nicotinamide phosphoribosyltransferase (Homo sapiens, UniProt P43490); assay: Inhibition of NAMPT (unknown origin)
[2] = biological target: T1, Nicotinamide phosphoribosyltransferase; assay: Activation of recombinant NAMPT (unknown origin) expressed in Escherichia coli by fluorescence based spectrometer analysis
[3] = biological target: Nicotinamide phosphoribosyltransferase (Mus musculus, UniProt Q99KQ4); assay: Activation of N-terminal 6His-tagged mouse NAMPT measured for 20 mins by fluorescence based spectrometer analysis
Sequence of Nicotinamide phosphoribosyltransferase (Mus musculus, UniProt Q99KQ4) (Q99KQ4 whole entry): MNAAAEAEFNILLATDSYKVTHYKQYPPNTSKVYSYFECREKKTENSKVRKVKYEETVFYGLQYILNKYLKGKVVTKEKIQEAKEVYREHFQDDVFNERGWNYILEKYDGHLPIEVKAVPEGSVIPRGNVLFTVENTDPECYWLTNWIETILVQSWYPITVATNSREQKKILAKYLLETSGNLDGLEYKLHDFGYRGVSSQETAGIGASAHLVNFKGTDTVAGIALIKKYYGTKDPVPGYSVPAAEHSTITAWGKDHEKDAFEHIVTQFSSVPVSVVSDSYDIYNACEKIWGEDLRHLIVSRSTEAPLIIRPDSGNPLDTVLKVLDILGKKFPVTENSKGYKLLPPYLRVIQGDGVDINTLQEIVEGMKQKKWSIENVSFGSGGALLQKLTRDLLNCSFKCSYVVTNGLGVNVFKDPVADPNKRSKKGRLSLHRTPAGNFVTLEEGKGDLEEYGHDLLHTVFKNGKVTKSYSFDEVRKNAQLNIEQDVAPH

[4] = biological target: Nicotinamide phosphoribosyltransferase (Mus musculus) (UniProt Q99KQ4); assay: Activation of N-terminal 6His-tagged mouse NAMPT assessed as increase in intracellular NAD+ level measured for 20 mins by fluorescence based spectrometer analysis relative to control; assay type: cell-based; conditions: filed as activator
Sequence of Nicotinamide phosphoribosyltransferase (Mus musculus) (Q99KQ4 whole entry, looked up): as the sequence (Q99KQ4 whole entry) above

HepG2 = assay: cells; conditions: Homo sapiens, HepG2, 48 h
[5] = biological target: T1, Nicotinamide phosphoribosyltransferase; assay: Activation of N-terminal His-tagged human NAMPT expressed in Escherichia coli BL 21 (DE3) using NAM and PRPP as substrates incubated for 15 mins in presence of ATP by fluorescence based spectrometer analysis
[6] = Anticancer activity against human NYH/VM cells assessed as reduction in cell growth; assay type: functional, cell-based
PC-3 = assay: Anticancer activity against human PC-3 cells; assay type: functional, cell-based
HCT-116 = assay: Anticancer activity against human HCT-116 cells assessed as reduction in cell growth; assay type: functional, cell-based
[7] = biological target: T2, Protein cereblon/Nicotinamide phosphoribosyltransferase (Homo sapiens, UniProt P43490+Q96SW2); assay: PROTAC activity at CRBN/NAMPT in human Jurkat cells assessed as induction of intracellular NAMPT degradation incubated for 24 hrs by Western blot analysis; assay type: cell-based
Target sequence in this assay (P43490 whole entry): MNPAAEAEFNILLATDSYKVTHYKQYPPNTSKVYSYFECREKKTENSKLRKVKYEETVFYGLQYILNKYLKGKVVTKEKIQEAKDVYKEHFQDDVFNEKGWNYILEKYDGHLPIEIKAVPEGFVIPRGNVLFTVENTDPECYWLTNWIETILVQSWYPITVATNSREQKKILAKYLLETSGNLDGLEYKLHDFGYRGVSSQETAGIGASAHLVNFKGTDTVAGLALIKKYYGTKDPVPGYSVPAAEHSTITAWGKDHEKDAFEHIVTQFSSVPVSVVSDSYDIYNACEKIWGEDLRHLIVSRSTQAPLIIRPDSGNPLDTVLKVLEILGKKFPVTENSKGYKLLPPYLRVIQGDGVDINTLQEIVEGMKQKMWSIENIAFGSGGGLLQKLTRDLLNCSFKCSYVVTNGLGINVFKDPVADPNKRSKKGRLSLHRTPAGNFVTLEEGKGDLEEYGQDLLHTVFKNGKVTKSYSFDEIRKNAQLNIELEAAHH
Target sequence in this assay (Q96SW2 whole entry): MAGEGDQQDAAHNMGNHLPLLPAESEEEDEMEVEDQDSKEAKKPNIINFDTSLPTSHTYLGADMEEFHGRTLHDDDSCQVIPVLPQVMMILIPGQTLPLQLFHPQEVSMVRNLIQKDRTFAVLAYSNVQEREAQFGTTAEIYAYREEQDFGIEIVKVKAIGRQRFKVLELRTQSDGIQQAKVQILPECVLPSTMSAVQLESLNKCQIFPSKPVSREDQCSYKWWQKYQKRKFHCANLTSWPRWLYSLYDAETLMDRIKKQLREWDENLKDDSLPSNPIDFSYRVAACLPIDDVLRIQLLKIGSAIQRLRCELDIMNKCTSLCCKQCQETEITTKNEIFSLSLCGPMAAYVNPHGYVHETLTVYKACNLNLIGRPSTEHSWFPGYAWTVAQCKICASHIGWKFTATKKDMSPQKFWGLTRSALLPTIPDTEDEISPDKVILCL

[8] = biological target: T2, Protein cereblon/Nicotinamide phosphoribosyltransferase; assay: PROTAC activity at CRBN/NAMPT in human Jurkat cells assessed as induction of intracellular NAMPT degradation at 5 uM incubated for 24 hrs by Western blot analysis relative to control; assay type: cell-based
Target sequence in this assay (P43490 whole entry, looked up): as the sequence (P43490 whole entry) above
Target sequence in this assay (Q96SW2 whole entry, looked up): as the sequence (Q96SW2 whole entry) above

A2780 = assay: cells; conditions: Homo sapiens, A2780, 72 h
Cytochrome P450 2C9 = Cytochrome P450 2C9 (Homo sapiens, UniProt P11712); assay: Inhibition of CYP2C9 (unknown origin); assay type: ADME
Sequence of Cytochrome P450 2C9 (P11712 whole entry): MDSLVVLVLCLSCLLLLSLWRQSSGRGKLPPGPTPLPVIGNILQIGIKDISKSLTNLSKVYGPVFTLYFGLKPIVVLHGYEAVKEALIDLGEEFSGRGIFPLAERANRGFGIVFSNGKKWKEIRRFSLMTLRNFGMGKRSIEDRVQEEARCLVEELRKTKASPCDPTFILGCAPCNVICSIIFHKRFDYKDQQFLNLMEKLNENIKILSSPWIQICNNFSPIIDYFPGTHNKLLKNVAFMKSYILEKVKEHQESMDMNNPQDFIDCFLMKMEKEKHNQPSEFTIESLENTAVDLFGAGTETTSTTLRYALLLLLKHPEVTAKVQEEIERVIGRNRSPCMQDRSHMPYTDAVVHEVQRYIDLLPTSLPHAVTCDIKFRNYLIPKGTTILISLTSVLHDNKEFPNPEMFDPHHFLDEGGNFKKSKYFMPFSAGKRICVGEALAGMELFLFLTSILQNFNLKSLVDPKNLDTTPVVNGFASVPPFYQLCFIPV

T1 sequence (P43490 whole entry): as the sequence (P43490 whole entry) above

SMILES: O=C1C=C2Cc3cc(O)c(O)cc3C(c3ccccc3O)=C2C=C1O
EC50 [2]: 3500 nM

SMILES: O=C(NCc1ccc(CO)cc1)Nc1ccc(S(=O)(=O)N2CC3CCC(C2)O3)cc1
EC50 [3]: 1490 nM
Emax [4]: 247%

SMILES: CCN(CC)C(=O)c1noc2cc(NC(=O)NCc3cnco3)ccc12
EC50 [5]: 180 nM

SMILES: O=S(=O)(c1ccc(CNc2ccc3cccn3c2)cc1)c1cc(F)cc(F)c1
IC50 (A2780): 360 nM

SMILES: Cc1nc2ccccc2n(Cc2ccc(C(=O)NCc3cccnc3)cc2)c1=O
IC50 (HepG2): 1690 nM

SMILES: O=C(NC[C@@H]1CCOC1)c1ccc(NC(=O)N2Cc3ccccc3C2)cc1
IC50 (Cytochrome P450 2C9): > 20000 nM

More lines, main results first:

IC50 [1]: 120 nM
SMILES: Nc1ccc(/C=C/C(=O)NCc2cc3cc(-c4ccc(C(=O)N5CCC(F)(F)CC5)cc4)cc(-c4ccc(F)cc4)c3o2)cn1 [PADNARSERTIB]

IC50 (HepG2): 1950 nM
SMILES: CCCn1c(=O)c(-c2ccc(C(=O)NCc3cccnc3)cc2)nc2ccccc21

IC50 (PC-3): 0.3 nM
IC50 (HCT-116): 0.4 nM
SMILES: N#C/N=C(\NCCCCCCC(=O)N(Cc1ccccc1)OC1CCCCC1)Nc1ccncc1
IC50 [6]: 0.02 nM

DC50 [7]: < 1 nM
Emax [8]: 93.3%
SMILES: O=C(/C=C/c1cccnc1)NCCCCC1CCN(C(=O)c2ccc(N3CCN(CCCCCC#Cc4cccc5c4CN(C4CCC(=O)NC4=O)C5=O)CC3)cc2)CC1 (stereo unspecified)

DC50 [7]: < 1 nM
Emax [8]: 92.5%
SMILES: O=C(/C=C/c1cccnc1)NCCCCC1CCN(C(=O)c2ccc(N3CCN(CCCCCCC#Cc4cccc5c4CN(C4CCC(=O)NC4=O)C5=O)CC3)cc2)CC1 (stereo unspecified)
